Reference: the NIST ThermoML archive (doi:10.1016/j.jct.2011.05.003)

Experiment: xn = mol fraction of the nth substance listed
Settings: Liquid; for speed of sound: 101 kPa, Sing-around technique in a fixed-path interferometer; for mass density: 101.3 kPa, Vibrating tube method

CCCCCC(C)=O [2-heptanone] + CCN(CC)CC
Settings | mass density [kg/m3] | speed of sound [m/s]
293.15 K, x1 = 0.0636 | 733.182 | 1141.8
293.15 K, x1 = 0.1061 | 737.185 | 1148.4
293.15 K, x1 = 0.1585 | 741.934 | 1156
293.15 K, x1 = 0.2077 | 746.426 | 1163.5
293.15 K, x1 = 0.2536 | 750.6 | 1170.4
293.15 K, x1 = 0.3091 | 755.621 | 1178.7
293.15 K, x1 = 0.3614 | 760.322 | 1186.6
293.15 K, x1 = 0.4043 | 764.18 | 1193.1
293.15 K, x1 = 0.4621 | 769.325 | 1201.9
293.15 K, x1 = 0.5022 | 772.887 | 1208
293.15 K, x1 = 0.5577 | 777.79 | 1216.3
293.15 K, x1 = 0.6078 | 782.199 | 1223.9
293.15 K, x1 = 0.6604 | 786.734 | 1231.8
293.15 K, x1 = 0.7001 | 790.167 | 1237.8
293.15 K, x1 = 0.749 | 794.387 | 1245
293.15 K, x1 = 0.7968 | 798.46 | 1252.1
293.15 K, x1 = 0.8517 | 803.051 | 1260.2
293.15 K, x1 = 0.9008 | 807.18 | 1267.3
293.15 K, x1 = 0.9507 | 811.366 | 1274.7
298.15 K, x1 = 0.0574 | 727.994 | 1119.4
298.15 K, x1 = 0.105 | 732.47 | 1126.8
298.15 K, x1 = 0.1619 | 737.667 | 1135.5
298.15 K, x1 = 0.2068 | 741.77 | 1142.1
298.15 K, x1 = 0.2598 | 746.582 | 1150.2
298.15 K, x1 = 0.3075 | 750.925 | 1157.5
298.15 K, x1 = 0.3578 | 755.443 | 1165.2
298.15 K, x1 = 0.4081 | 759.984 | 1172.9
298.15 K, x1 = 0.4548 | 764.166 | 1180.1
298.15 K, x1 = 0.5032 | 768.476 | 1187.5
298.15 K, x1 = 0.5545 | 773.017 | 1195.4
298.15 K, x1 = 0.6103 | 777.928 | 1204
298.15 K, x1 = 0.6579 | 782.088 | 1211.3
298.15 K, x1 = 0.6994 | 785.697 | 1217.6
298.15 K, x1 = 0.7484 | 789.941 | 1225.1
298.15 K, x1 = 0.8031 | 794.633 | 1233.3
298.15 K, x1 = 0.8576 | 799.228 | 1241.5
298.15 K, x1 = 0.9014 | 802.909 | 1247.9
298.15 K, x1 = 0.9462 | 806.662 | 1254.6
303.15 K, x1 = 0.0612 | 723.838 | 1100.1
303.15 K, x1 = 0.1056 | 727.95 | 1106.8
303.15 K, x1 = 0.1602 | 732.935 | 1115.1
303.15 K, x1 = 0.2068 | 737.166 | 1122.2
303.15 K, x1 = 0.2606 | 742.09 | 1130.5
303.15 K, x1 = 0.3086 | 746.453 | 1137.9
303.15 K, x1 = 0.3583 | 750.968 | 1145.7
303.15 K, x1 = 0.4082 | 755.492 | 1153.5
303.15 K, x1 = 0.4553 | 759.737 | 1160.8
303.15 K, x1 = 0.5042 | 764.098 | 1168.4
303.15 K, x1 = 0.5983 | 772.43 | 1183.1
303.15 K, x1 = 0.6536 | 777.279 | 1191.6
303.15 K, x1 = 0.7031 | 781.622 | 1199.3
303.15 K, x1 = 0.7452 | 785.267 | 1205.8
303.15 K, x1 = 0.8088 | 790.717 | 1215.5
303.15 K, x1 = 0.8489 | 794.102 | 1221.5
303.15 K, x1 = 0.9007 | 798.491 | 1229.2
303.15 K, x1 = 0.9503 | 802.71 | 1235.8
